Results published in the supplement of paper PMC10307832.

Columns and labels:
Assay in all cases: relative viability (nuclei count vs DMSO), 5 days (fraction); higher = more cells survive
[1] = compound: C[C@@H](Oc1cc(-c2cnn(C3CCNCC3)c2)cnc1N)c1c(Cl)ccc(F)c1Cl [Crizotinib] + CC1(C)CCC(c2ccc(Cl)cc2)=C(CN2CCN(c3ccc(C(=O)NS(=O)(=O)c4ccc(N[C@H](CCN5CCOCC5)CSc5ccccc5)c(S(=O)(=O)C(F)(F)F)c4)cc3)CC2)C1 [Navitoclax] (partner 0.5 µM)
In short: (§1)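 Nuclei were stained with Hoechst during a one-step fixation (final 0.05% Triton X-100, 1% formaldehyde, 1 ug/ml Hoechst) carried out 5 days after dosing, then counted on 4× images. The cells, lung cancer lines in 1536-well plates, had been dosed by pin tool the day after seeding with one drug alone or a fixed anchor-drug dose plus five library-drug doses (not always all listed) in √10 steps. Relative viability is the nuclei count in treated wells divided by that in vehicle wells, and each value is the median of duplicate plates.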

[2] = compound: CC(C)C[C@H](NC(=O)[C@H](CCc1ccccc1)NC(=O)CN1CCOCC1)C(=O)N[C@@H](Cc1ccccc1)C(=O)N[C@@H](CC(C)C)C(=O)[C@@]1(C)CO1 [Carfilzomib] + Nc1ncn([C@H]2C[C@H](O)[C@@H](CO)O2)c(=O)n1 [Decitabine] (partner 2 µM)
In short: as §1

[3] = compound: CC(C)C[C@H](NC(=O)[C@H](CCc1ccccc1)NC(=O)CN1CCOCC1)C(=O)N[C@@H](Cc1ccccc1)C(=O)N[C@@H](CC(C)C)C(=O)[C@@]1(C)CO1 [Carfilzomib] + CS(=O)(=O)N1CCN(Cc2cc3nc(-c4cccc5[nH]ncc45)nc(N4CCOCC4)c3s2)CC1 [Pictilisib] (partner 1 µM)
In short: as §1

[4] = compound: O=C(c1cc(Cc2n[nH]c(=O)c3ccccc23)ccc1F)N1CCN(C(=O)C2CC2)CC1 [Olaparib] + CCNC(=O)c1noc(-c2cc(C(C)C)c(O)cc2O)c1-c1ccc(CN2CCOCC2)cc1 [Luminespib] (partner 0.01 µM)
In short: as §1

| Cell Line | relative viability ([1]; first compound 0.01 µM) | relative viability ([1]; first compound 0.03162 µM) | relative viability ([1]; first compound 0.1 µM) | relative viability ([1]; first compound 0.3162 µM) | relative viability ([1]; first compound 1 µM) | relative viability ([2]; first compound 0.001 µM) | relative viability ([2]; first compound 0.003162 µM) | relative viability ([2]; first compound 0.01 µM) | relative viability ([2]; first compound 0.03162 µM) | relative viability ([2]; first compound 0.1 µM) | relative viability ([3]; first compound 0.001 µM) | relative viability ([3]; first compound 0.003162 µM) | relative viability ([3]; first compound 0.01 µM) | relative viability ([3]; first compound 0.03162 µM) | relative viability ([3]; first compound 0.1 µM) | relative viability ([4]; first compound 0.08 µM) | relative viability ([4]; first compound 0.253 µM) | relative viability ([4]; first compound 2.53 µM) | relative viability ([4]; first compound 8 µM) |
| --- | --- | --- | --- | --- | --- | --- | --- | --- | --- | --- | --- | --- | --- | --- | --- | --- | --- | --- | --- |
| NCI-H2087 | 0.828 | 0.996 | 1.09 | 0.888 | 1.19 | 0.214 | 0.247 | 0.179 | 0.0542 | 0.0427 | 0.802 | 0.874 | 0.552 | 0.0964 | 0.18 | 0.162 | 0.159 | 0.199 | 0.154 |
| NCI-H2126 | 0.834 | 0.826 | 0.842 | 0.759 | 0.832 | 0.627 | 0.625 | 0.552 | 0.597 | 0.555 | 0.557 | 0.477 | 0.512 | 0.555 | 0.446 | 1.13 | 0.797 | 0.811 | 0.724 |
| NCI-H2170 | 0.536 | 0.603 | 0.574 | 0.468 | 0.632 | 0.451 | 0.474 | 0.448 | 0.477 | 0.22 | 0.317 | 0.349 | 0.327 | 0.283 | 0.163 | 0.735 | 0.651 | 0.594 | 0.5 |
| NCI-H2347 | 0.682 | 0.734 | 0.849 | 0.799 | 0.852 | 0.625 | 0.608 | 0.66 | 0.594 | 0.389 | 0.662 | 0.623 | 0.67 | 0.549 | 0.318 | 0.43 | 0.615 | 0.398 | 0.259 |
| NCI-H2405 | 0.816 | 0.815 | 0.79 | 0.858 | 0.862 | 0.803 | 0.881 | 0.763 | 0.57 | 0.225 |  | 0.583 | 0.521 | 0.321 | 0.174 | 0.646 | 0.651 | 0.685 | 0.782 |
| NCI-H3122 | 0.99 | 0.993 | 1.04 | 1.02 |  | 0.451 | 0.441 | 0.421 | 0.462 | 0.216 | 0.585 | 0.615 | 0.6 | 0.602 | 0.34 | 0.0823 | 0.107 | 0.101 | 0.0643 |
| PC-3 [JPC-3] | 0.809 | 0.807 | 0.815 | 0.684 | 0.858 | 0.832 | 0.879 | 0.89 | 0.64 | 0.301 | 0.782 | 0.747 | 0.677 | 0.707 | 0.259 | 0.832 | 0.749 | 0.587 | 0.592 |
| PC-14 | 0.983 | 0.96 | 0.991 | 1.04 | 0.998 | 0.198 | 0.273 | 0.23 | 0.0558 | 0.0667 | 0.55 | 0.816 | 0.364 | 0.0334 | 0.0646 | 0.199 |  | 0.134 | 0.156 |
